In patent US8481556B2, “Piperidinone carboxamide azaindane CGRP receptor antagonists” (Merck, Sharp & Dohms, Corp., priority 2010, dated 2013):
Where a name gives a salt, the structure may show the parent alone. Each block holds one compound with its values, some of them ahead of it. Ends that are not written are not given here.

Assays:
[1] = molecular target: T1, recombinant human CL receptor/RAMP1 (Homo sapiens, UniProt O60894+Q16602); experiment: Recombinant receptor binding assay (125I-hCGRP); details: exemplary compounds of the invention
T1 construct: expressed in transfected cells; membranes used
Procedure: Human CL receptor (Genbank accession number L76380) was subcloned into the expression vector pIREShyg2 (BD Biosciences Clontech) as a 5′NheI and 3′ PmeI fragment. Human RAMP1 (Genbank accession number AJ001014) was subcloned into the expression vector pIRESpuro2 (BD Biosciences Clontech) as a 5′NheI and 3′NotI fragment. […] Cells were subcultured by treatment with 0.25% trypsin with 0.1% EDTA in HBSS. Stable cell line generation was accomplished by co-transfecting 10 μg of DNA with 30 μg Lipofectamine 2000 (Invitrogen) in 75 cm^2 flasks. CL receptor and RAMP1 expression constructs were co-transfected in equal amounts. Twenty-four hours after transfection the cells were diluted and selective medium (growth medium+300 μg/mL hygromycin and 1 μg/mL puromycin) was added the following day. A clonal cell line was generated by single cell deposition utilizing a FACS Vantage SE (Becton Dickinson). Growth medium was adjusted to 150 μg/mL hygromycin and 0.5 μg/mL puromycin for cell propagation.
The cell suspension was disrupted with a laboratory homogenizer and centrifuged at 48,000 g to isolate membranes. The pellets were resuspended in harvest buffer plus 250 mM sucrose and stored at −70° C. […] Scintillation fluid was added and the plates were counted on a Topcount (Packard).

[2] = system: migraine; details: cited from earlier work
[3] = system: facial blood flow; details: marmoset, electrical stimulation of the trigeminal ganglion (Doods et al. 2000); cited from earlier work
[4] = system: middle meningeal artery; details: rats, electrical stimulation of the dura mater, prior administration (Williamson et al. 1997); cited from earlier work
[5] = system: facial blood flow; details: rat, trigeminal ganglion stimulation (Escott et al. 1995); cited from earlier work

T1 sequence (Q16602 23-461): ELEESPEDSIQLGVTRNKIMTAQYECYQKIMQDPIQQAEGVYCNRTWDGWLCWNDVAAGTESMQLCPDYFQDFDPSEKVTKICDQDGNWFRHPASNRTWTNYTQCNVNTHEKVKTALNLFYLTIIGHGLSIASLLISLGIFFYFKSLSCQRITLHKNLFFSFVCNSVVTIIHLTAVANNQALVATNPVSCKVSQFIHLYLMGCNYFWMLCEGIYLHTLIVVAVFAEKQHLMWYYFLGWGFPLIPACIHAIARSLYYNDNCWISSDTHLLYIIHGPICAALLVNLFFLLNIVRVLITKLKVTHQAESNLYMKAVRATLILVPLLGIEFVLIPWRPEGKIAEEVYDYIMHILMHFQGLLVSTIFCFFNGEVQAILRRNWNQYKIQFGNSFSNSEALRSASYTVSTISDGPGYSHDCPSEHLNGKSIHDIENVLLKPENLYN
T1 sequence (O60894 27-148): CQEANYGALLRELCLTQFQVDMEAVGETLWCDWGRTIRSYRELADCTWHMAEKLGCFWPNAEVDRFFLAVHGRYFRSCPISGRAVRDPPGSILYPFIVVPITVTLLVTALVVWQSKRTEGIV

Ki [1]: 0.011 nM
Compound: C[C@@H]1[C@H](c2c(F)ccc(F)c2F)C[C@H](NC(=O)c2cnc3c(c2)C[C@@]2(C3)C(=O)Nc3ncc(F)cc32)C(=O)N1CC(F)(F)F [Example 33, (6S)-5′-Fluoro-N-[(3S,5S,6R)-6-methyl-2-oxo-1-(2,2,2-trifluoroethyl)-5-(2,3,6-trifluorophenyl)piperidin-3-yl]-2′-oxo-1′,2′,5,7-tetrahydrospiro[cyclopenta[b]pyridine-6,3′-pyrrolo[2,3-b]pyridine]-3-carboxamide hydrochloride]

Compound: O=C(N[C@@H]1CC[C@@H](c2cccc(F)c2F)CN(CC(F)(F)F)C1=O)N1CCC(n2c(=O)[nH]c3ncccc32)CC1 [telcagepant]
antimigraine effectiveness ([2]; phase III clinical trials (Ho et al. 2008; Connor et al. 2009)): shown antimigraine effectiveness

Compound: NCCCC[C@H](NC(=O)[C@@H](Cc1cc(Br)c(O)c(Br)c1)NC(=O)N1CCC(N2Cc3ccccc3NC2=O)CC1)C(=O)N1CCN(c2ccncc2)CC1 [BIBN4096BS]
effectiveness in treating acute attacks of migraine ([2]; clinical trials (Olesen et al. 2004)): effective in treating acute attacks of migraine | effect on increase in facial blood flow [3]: could be blocked

Compound: CGRP(8-37) (VTHRLAGLLSRSGGVVKNNFVPTNVGSKAF-NH2; ends and bridges not checked; UniProt P06881 90-119, looked up, fragment) [a peptide CGRP receptor antagonist]
effect on increase of middle meningeal artery diameter [4]: blocked | effect on increased facial blood flow [5]: inhibited

Ki [1]: 0.066 nM
Compound: C[C@@H]1[C@H](c2cc(F)cc(F)c2F)C[C@H](NC(=O)c2cnc3c(c2)C[C@@]2(C3)C(=O)Nc3ncc(C#N)cc32)C(=O)N1CC(F)(F)F [Example 34]
